# Results taken from paper PMC11187126, “Structure and dynamics of the pyroglutamylated RF-amide peptide QRFP receptor GPR103” (Nature Communications, 2024).
# Like-named read-outs stand apart in the source and are kept apart here. No end group written: not given here.
# Target: T1, wild-type GPR103 (Homo sapiens, UniProt Q96P65)
# T1 construct: we used human full-length QRFPR-encoding plasmids; expressed in transfected cells; host or cells: HEK293 cells, pCAGGS vector
# T1 sequence (Q96P65 1-431): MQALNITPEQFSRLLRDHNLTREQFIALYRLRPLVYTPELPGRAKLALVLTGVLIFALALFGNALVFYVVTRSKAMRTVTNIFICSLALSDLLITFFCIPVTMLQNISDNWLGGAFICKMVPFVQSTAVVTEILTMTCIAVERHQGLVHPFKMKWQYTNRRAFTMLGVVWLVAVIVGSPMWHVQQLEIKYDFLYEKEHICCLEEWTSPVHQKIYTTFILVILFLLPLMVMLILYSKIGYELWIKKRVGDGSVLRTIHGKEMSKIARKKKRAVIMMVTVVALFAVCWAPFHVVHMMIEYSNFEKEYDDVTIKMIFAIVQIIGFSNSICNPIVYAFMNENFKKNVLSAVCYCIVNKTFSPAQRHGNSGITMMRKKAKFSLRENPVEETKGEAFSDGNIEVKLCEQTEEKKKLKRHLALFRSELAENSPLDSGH
# Test: TGFα shedding assay, HEK293 cells; WT titrated to lower expression (1:1 to 1:50)
# Type: cell-based
# Protocol: For the TGFα shedding assay and the flow cytometry analysis, we used human full-length QRFPR-encoding plasmids. Specifically, GPR103 was N-terminally modified with an HA signal sequence followed by a FLAG epitope and then a flexible linker ([…]; the FLAG epitope is underlined) and inserted into the pCAGGS vector. Plasmid encoding GPR103 mutants were generated using Quickchange Site-Directed Mutagensis kit (Agilent).
# The TGFα shedding assay was performed as described previously with minor modifications. Plasmid transfection was performed in a 6-well plate with a mixture of 500 ng (per well in a 6-well plate) AP-TGFα-encoding plasmid and 200 ng GPR103-encoding plasmid. After 1-day culture, the transfected cells were harvested by trypsinization, pelleted by centrifugation at 190 × g for 5 min, and washed once with 5 mM HEPES (pH 7.4)-containing Hank’s Balanced Salt Solution (HBSS). After centrifugation, the cells were resuspended in 8 mL of the HEPES-containing HBSS. The cell suspension was seeded in a 96-well culture plate (cell plate) at a volume of 90 μL (per well hereafter) and incubated in a 37 °C incubator with 5% CO2 for 30 min. […] After spinning the cell plates at 190 × g for 2 min, 80 μL of conditioned media was transferred to an empty 96-well plate (conditioned media (CM) plate). Then, 80 μL of AP reaction solution (10 mM p-nitrophenylphosphate (p-NPP), 120 mM Tris-HCl (pH 9.5), 40 mM NaCl, and 10 mM MgCl2) was dispensed into the cell plates and the CM plates. Absorbance at 405 nm of the plates was measured using a microplate reader (SpectraMax 340 PC384, Molecular Devices) before and after 1-h incubation at room temperature. Ligand-induced AP-TGFα release was calculated by subtracting spontaneous AP-TGFα release signal from ligand-induced AP-TGFα release signal. The AP-TGFα release signals were fitted to a four-parameter sigmoidal concentration–response curve, using the Prism 10 software (GraphPad Prism). For each replicate experiment, the pEC50 parameter (negative logarithmic values of EC50 values) of the individual GPR103 mutants were normalized to that of the wild-type GPR103 performed in parallel, and resulting ∆pEC50 values were used to denote ligand response activity of the mutants. […]
# Exp. le vel: WT (1:5 0)Exp. le vel: WT (1:5 0)Exp. le vel: WT (1:5 0)Exp. le vel: WT (1:2 0)Exp. le vel: WT (1:2 0)Exp. le vel: WT (1:1 0) […]
# L1 4N - t e r mA F2 5N - t e r mA I 2 6N - t e r mA Y 2 9N - t e r mA C 9 82 .5 7A T10 22 .6 1A Exp . l eve l: WT (1 :5)Exp . l evel : >WT (1 :1)Exp. le vel: WT (1:2 0)Exp. le vel: WT (1:2 0)Exp. le vel: WT (1:5 0)Exp . l eve l: WT (1 :1) […]
# Exp. le vel: WT (1:1 0)Exp. le vel: WT (1:2 0) C 1 1 83 .2 5AExp. le vel: WT (1:5 0)Exp. le vel: WT (1:5 0)Exp. le vel: WT (1:2 0)Exp . l eve l: WT (1 :5) […]
# Exp. le vel: WT (1:5 0)Exp. le vel: WT (1:1 0)Exp. le vel: WT (1:5 0) E203ECL2AExp . l evel : >WT (1 :1)Exp. le vel: WT (1:5 0)Exp. le vel: WT (1:5 0) […]
# Exp . l eve l: WT (1 :1) F28Exp. le vel: WT (1:5 0) C 2 8 56 .4 7AExp. le vel: WT (1:2 0) WExp. le vel: WT (1:2 0) F28Exp. le vel: WT (1:5 0)Exp . l evel : >WT (1 :1) […]
# Exp. le vel: WT (1:5 0)Exp. le vel: WT (1:5 0) C 3 2 77 .4 8AExp . l eve l: WT (1 :5)Exp . l evel : >WT (1 :1)Exp . l evel : >WT (1 :1) […]
# Suppl eme nt ary Figure 1 | Mutational analysis of GPR103. […]
# mutants. Data are presented as mean values ± SEM, normally n=3-5; dots), each performed in triplicate. b-d Cell-surface expression (b) and QRFP26-in-duced activation of GPR103 (c, d) were analyzed by the flow cytometry and the TGFα shedding assay, respectively. From the concentration–response curves (a), Emax (c) and ΔpEC50 (d) values relative to the wild type were calculated. Colors in the mutant bars indicate an expression level matching to that of titrated wild type. Statistical analyses were performed using the ordinary one-way ANOVA followed by Dunnett tests with the expression-matched […]
substance,measurement,setting,value
TSGPLGNLAEELNGYSRKKGGFSFRF-NH2 [QRFP26],Emax,"HEK293, WT (1:2), mean, read-out: Emax",102%
same,Emax,"HEK293, WT (1:2), n = 5, read-out: Emax",102 ± 1.4%
same,Emax,"HEK293, WT (1:5), mean, read-out: Emax",98%
same,Emax,"HEK293, WT (1:10), mean, read-out: Emax",85.2%
same,Emax,"HEK293, WT (1:10), n = 5, read-out: Emax",86.5 ± 1.5%
same,Emax,"HEK293, WT (1:20), mean, read-out: Emax",68.7%
same,Emax,"HEK293, WT (1:20), n = 5, read-out: Emax",69.6 ± 1.9%
same,Emax,"HEK293, WT (1:50), mean, read-out: Emax",40%
same,Emax,"HEK293, WT (1:50), n = 3, read-out: Emax",38.9 ± 2.7%
same,EC50,"WT (1:1), n = 5",5.13 nM
same,Emax,"WT (1:2), Exp. #1",99.44 % WT
same,Emax,"WT (1:2), Exp. #2",98.59 % WT
same,Emax,"WT (1:2), Exp. #3",107.25 % WT
same,Emax,"WT (1:2), Exp. #4",101.53 % WT
same,Emax,"WT (1:2), Exp. #5",103.42 % WT
same,EC50,"WT (1:2), n = 5",6.61 nM
same,Emax,"WT (1:5), Exp. #1",95.01 % WT
same,Emax,"WT (1:5), Exp. #2",93.02 % WT
same,Emax,"WT (1:5), Exp. #3",103.20 % WT
same,Emax,"WT (1:5), Exp. #4",97.64 % WT
same,Emax,"WT (1:5), Exp. #5",100.97 % WT
same,EC50,"WT (1:5), n = 5",12.6 nM
same,Emax,"WT (1:10), Exp. #1",87.43 % WT
same,Emax,"WT (1:10), Exp. #2",82.73 % WT
same,Emax,"WT (1:10), Exp. #3",90.71 % WT
same,Emax,"WT (1:10), Exp. #4",84.24 % WT
same,Emax,"WT (1:10), Exp. #5",81.03 % WT
same,EC50,"WT (1:10), n = 5",15.1 nM
same,Emax,"WT (1:20), Exp. #1",70.65 % WT
same,Emax,"WT (1:20), Exp. #2",70.10 % WT
same,Emax,"WT (1:20), Exp. #3",74.01 % WT
same,EC50,"WT (1:20), n = 5",21.4 nM
same,Emax,"WT (1:50), Exp. #3",46.11 % WT
same,Emax,"WT (1:50), Exp. #4",34.55 % WT
same,Emax,"WT (1:50), Exp. #5",39.32 % WT
same,EC50,"WT (1:50), n = 3",53.7 nM
